# Results taken from patent publication US20160312315A1, “Methods and Compositions for Determining Virus Susceptibility to Integrase Inhibitors” (Laboratory Corporation of America Holdings, priority 2011, published 2016).
# Columns and labels:
# Format in all cases: cell-based, HIV-1
# [1] = tested on: Y143R plus T97A site directed mutant virus; test: PhenoSense raltegravir susceptibility assay, site directed mutant viruses; details: SDM virus vs NL4-3
# Protocol: (§1) Raltegravir susceptibility tests performed with resistance test vectors were carried out using packaging host and target host cells consisting of the human embryonic kidney cell line 293. Susceptibility tests were carried out with the RTV libraries by using viral particles comprising the RTV libraries to infect a host cell in which the expression of the indicator gene is measured. The amount of indicator gene (luciferase) activity detected in infected cells is used as a direct measure of “infectivity,” i.e., the ability of the virus to complete a single round of replication. Thus, drug susceptibility can be determined by plotting the amount of luciferase activity produced by patient derived viruses in the presence of varying concentrations of the antiviral drug. By identifying the concentration of drug at which luciferase activity is half-maximum, the IC50 of the virus from which patient-derived segment(s) were obtained for the antiretroviral agent can be determined. The IC50 provides a direct measure of the susceptibility of the HIV infecting the patient to raltegravir.
# (§2) In the susceptibility tests, packaging host (293) cells were seeded in 10-cm-diameter dishes and were transfected one day after plating with test vector plasmid DNA and the envelope expression vector. Transfections were performed using a calcium-phosphate co-precipitation procedure. The cell culture media containing the DNA precipitate was replaced with fresh medium, from one to 24 hours, after transfection. […] Alternatively, cells were lysed, and luciferase was measured by adding Steady-Glo (Promega Corp.; Madison, Wis.) reagent directly to each well without aspirating the culture media from the well. […]
# (§3) Site directed mutant (SDM) viruses were created that had only the specific integrase mutation listed on the x-axis of FIG. 8A, 8B, or 8C. FIGS. 8A, 8B, and 8C are graphs showing the fold change (FC) in raltegravir susceptibility of the SDM viruses, as compared to the raltegravir susceptibility of an NL4-3 virus and determined by the PhenoSense assay. […]
# [2] = tested on: other Y143X (Y143H/C/S/G) site directed mutant viruses; test: as above; details: other Y143X substitutions alone, SDM viruses vs NL4-3
# Protocol: as §1, §2, §3
# [3] = tested on: Y143R site directed mutant virus; test: as above; details: Y143R mutation alone, SDM virus vs NL4-3
# Protocol: as §1, §2, §3
# [4] = tested on: Y143C/G/S plus S230R site directed mutant viruses; test: as above; details: SDM viruses vs NL4-3
# Protocol: (§4) Raltegravir susceptibility tests performed with resistance test vectors were carried out using packaging host and target host cells consisting of the human embryonic kidney cell line 293. Susceptibility tests were carried out with the RTV libraries by using viral particles comprising the RTV libraries to infect a host cell in which the expression of the indicator gene is measured. The amount of indicator gene (luciferase) activity detected in infected cells is used as a direct measure of “infectivity,” i.e., the ability of the virus to complete a single round of replication. Thus, drug susceptibility can be determined by plotting the amount of luciferase activity produced by patient derived viruses in the presence of varying concentrations of the antiviral drug. By identifying the concentration of drug at which luciferase activity is half-maximum, the IC50 of the virus from which patient-derived segment(s) were obtained for the antiretroviral agent can be determined. […]
# (§5) In the susceptibility tests, packaging host (293) cells were seeded in 10-cm-diameter dishes and were transfected one day after plating with test vector plasmid DNA and the envelope expression vector. […] Alternatively, cells were lysed, and luciferase was measured by adding Steady-Glo (Promega Corp.; Madison, Wis.) reagent directly to each well without aspirating the culture media from the well. […]
# [5] = tested on: Y143R plus S230R site directed mutant virus; test: as above; details: SDM virus, compared with Y143R alone
# Protocol: as §4, §5
# [6] = tested on: other Y143X plus T97A site directed mutant viruses
# Protocol: as §4, §5
structure (smiles),measurement,setting,value
Cc1nnc(C(=O)NC(C)(C)c2nc(C(=O)NCc3ccc(F)cc3)c(O)c(=O)n2C)o1 [raltegravir],"fold change in IC50 (FC), reduction in RAL susceptibility",[1],70
same,"fold change in IC50 (FC), reduction in RAL susceptibility",[2],3-6
same,"fold change in IC50 (FC), reduction in RAL susceptibility",[3],20
same,"fold change in IC50 (FC), reduction in RAL susceptibility",[4],15-24
same,further reduction in RAL susceptibility on addition of S230R,[5],did not
same,"fold change in IC50 (FC), reduction in RAL susceptibility",[6],7-16
